The test system of experiment [1] is Balb/3T3 cells. The experiment can be described thus: Mammalian cell growth inhibition assay (resazurin). Type of experiment: cell-based, mouse. Particulars: for CC50: BALB/3T3, 72 h, mouse embryonic fibroblast cells, 48 h + 24 h with resazurine, read-out: IC50 Balb/3T3; for Selectivity Index (SI): Balb/3T3 versus T. b. brucei TC221. As for the experimental part:
(§1) The cell culture conditions and the growth inhibition assay on T. brucei and Balb/3T3 cells were performed as described before. T. brucei TC221 bloodstream forms and mouse embryonic fibroblast Balb/3T3 cells (ATCC no CCL-163) were cultivated in vented plastic flasks at 37 °C with 5% CO2. For T. brucei, the growth medium was HMI-9 [45] supplemented with 10% (v/v) fetal bovine serum (Gibco, Waltham, MA, USA), whereas the Balb/3T3 cells were grown in Dulbecco’s Modified Eagle’s Medium (Sigma-Aldrich) supplemented with 10% (v/v) heat-inactivated fetal bovine serum, glutamine (0.584 g/L), and 10 mL/L 100× penicillin-streptomycin (Gibco). The essential oils or pure compounds identified from these oils were dissolved in dimethyl sulfoxide (DMSO) and serially diluted with growth medium in white 96-well microtiter plates. 20,000 bloodstream forms of T. brucei or Balb/3T3 cells were added to each well in a final volume of 200 μL. In the case of mammalian cells, we also tested 2000 cells/well with similar results. […] Cell viability was verified by a drug-free control for each compound. The plates were incubated for 48 h in the CO2 incubator; then 20 μL of 0.5 mM resazurine (Sigma Aldrich) was added to each well, and the plates were incubated for an additional 24 h before the fluorescence was measured with an Infinite M200 microplate reader (Tecan group, Ltd., Männedorf, Switzerland) equipped with 540 and 590 nm excitation and emission filters. The half maximal inhibitory concentration (IC50) values were calculated on a log inhibitor versus the response curves by non-linear regression using the GraphPad prism 5.04 software (GraphPad Software, Inc., La Jolla, CA, USA).

The subject of experiment [2] is T. brucei TC221 bloodstream forms. The experiment can be described thus: T. brucei growth inhibition assay (resazurin). It counts as cell-based. Particulars: Trypanosoma brucei, 72 h, 48 h + 24 h with resazurine. As to the method: as §1
The mark [3] stands for this setting: read-out: IC50 T. b. brucei (TC221).
The mark [4] stands for this setting: µM value in parentheses, read-out: IC50 T. b. brucei (TC221), value in brackets (converted).

Structures are written as SMILES. Where two headings read alike, the source gives them in different places.

For the compound `C=C1CCC2(C(C)C)CC12` (stereo not shown) [Sabinene], in experiment [1], the CC50 was more than 100 µg/mL and the “Selectivity Index (SI)” value is listed as more than 16.7. For the same compound, in experiment [2] (setting [3]), the 50% inhibitory concentration (IC50) came out at 5.96 ± 1.3 µg/mL. Moreover, the IC50 in experiment [2] (setting [4]) is 43.8 µM.

Regarding `CC1=CCC(O)(C(C)C)CC1` (stereo not shown) [Terpinen-4-ol], the 50% inhibitory concentration (IC50) in experiment [2] (setting [3]) is more than 100 µg/mL.

With `C=C1CC/C=C(\C)CC[C@@H]2[C@@H]1CC2(C)C` [(E)-Caryophyllene], in experiment [1], the CC50 is more than 100 µg/mL and the “Selectivity Index (SI)” value was more than 12.1. In experiment [2] (setting [3]), the half-maximal inhibitory concentration (IC50) stood at 8.25 ± 1.3 µg/mL. Also, the IC50 in experiment [2] (setting [4]) was 40.4 µM.

Regarding `Cc1ccc(C(=O)Nc2ccc(S(=O)(=O)O)c3cc(S(=O)(=O)O)cc(S(=O)(=O)O)c23)cc1NC(=O)c1cccc(NC(=O)Nc2cccc(C(=O)Nc3cc(C(=O)Nc4ccc(S(=O)(=O)O)c5cc(S(=O)(=O)O)cc(S(=O)(=O)O)c45)ccc3C)c2)c1` [Suramin, reference compound], the values for the IC50 in experiment [2] (setting [3]) and in experiment [2] (setting [4]) were 0.0286 ± 0.0008 µg/mL and 0.022 µM, respectively.

As to `C=C1CCC2CC1C2(C)C` (stereo not drawn) [β-Pinene], in experiment [1], the CC50 is more than 100 µg/mL and the “Selectivity Index (SI)” value was more than 8.77. The concentration for half-maximal inhibition (IC50) in experiment [2] (setting [3]) turned out to be 11.4 ± 2.6 µg/mL. Besides, the half-maximal inhibitory concentration (IC50) in experiment [2] (setting [4]) was 83.7 µM.

For `CC12CCC(CC1)C(C)(C)O2` [1,8-Cineole], the IC50 in experiment [2] (setting [3]) was more than 100 µg/mL.

A word on the IC50: it is the concentration that gives 50% inhibition.

For the origin of these results see paper PMC5551175, “Trypanosoma brucei Inhibition by Essential Oils from Medicinal and Aromatic Plants Traditionally Used in Cameroon (Azadirachta indica, Aframomum melegueta, Aframomum daniellii, Clausena anisata, Dichrostachys cinerea and Echinops giganteus)” (International Journal of Environmental Research and Public …, 2017).
